Results reported in article PMC6892409, “Phenotypic proteomic profiling identifies a landscape of targets for circadian clock–modulating compounds” (Life Science Alliance, 2019).
Like-named read-outs stand apart in the source and are kept apart here.

Key:
NFU1 = NFU1 (Homo sapiens, UniProt Q9UMS0); assay: TPP in intact U2OS cells; format: binding; conditions: vs vehicle
TNS1 = TNS1 (Homo sapiens, UniProt Q9HBL0); assay: TPP in intact U2OS cells; format: binding; conditions: vs vehicle
[1] = molecular target: Rab GTPase-binding effector protein 1 (RABEP1) (Homo sapiens, UniProt Q15276); assay: TPP in intact U2OS cells; conditions: vs vehicle
Sequence of Rab GTPase-binding effector protein 1 (RABEP1) (Q15276 whole entry): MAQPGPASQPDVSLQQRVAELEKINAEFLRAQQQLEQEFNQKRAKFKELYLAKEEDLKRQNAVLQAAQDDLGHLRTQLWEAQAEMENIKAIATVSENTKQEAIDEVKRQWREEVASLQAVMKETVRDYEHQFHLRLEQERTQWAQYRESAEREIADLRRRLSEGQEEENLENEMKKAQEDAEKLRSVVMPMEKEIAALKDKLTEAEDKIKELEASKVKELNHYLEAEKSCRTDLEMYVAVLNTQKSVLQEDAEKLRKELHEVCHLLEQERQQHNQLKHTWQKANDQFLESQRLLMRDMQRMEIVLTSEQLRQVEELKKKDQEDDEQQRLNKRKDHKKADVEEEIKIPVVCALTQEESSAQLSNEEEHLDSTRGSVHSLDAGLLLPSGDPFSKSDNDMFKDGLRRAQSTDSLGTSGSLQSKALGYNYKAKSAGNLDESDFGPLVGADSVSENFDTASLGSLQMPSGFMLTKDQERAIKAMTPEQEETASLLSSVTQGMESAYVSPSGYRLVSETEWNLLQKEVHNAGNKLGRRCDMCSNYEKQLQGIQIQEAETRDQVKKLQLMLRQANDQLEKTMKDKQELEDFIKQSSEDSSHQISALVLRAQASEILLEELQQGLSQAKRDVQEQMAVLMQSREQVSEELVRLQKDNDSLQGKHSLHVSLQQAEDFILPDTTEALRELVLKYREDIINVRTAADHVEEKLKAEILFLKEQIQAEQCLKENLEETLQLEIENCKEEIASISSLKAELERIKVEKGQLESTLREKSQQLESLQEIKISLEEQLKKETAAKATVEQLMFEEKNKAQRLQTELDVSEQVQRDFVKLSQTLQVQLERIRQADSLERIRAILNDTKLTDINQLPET

[2] = molecular target: Cleavage stimulation factor subunit 2 tau variant (CSTF2T) (Homo sapiens, UniProt Q9H0L4); assay: TPP in intact U2OS cells; format: binding; conditions: vs vehicle
ERK2/MAPK1 = molecular target: T1, ERK2/MAPK1 (Homo sapiens, UniProt P28482); assay: Radiometric HotSpot kinase assay; format: biochemical; conditions: 100 μM, n = 3; remaining activity vs DMSO; read-out: Enzyme activity (%) ERK2/MAPK1
T1 construct: purchased Reaction Biology
Description: (§1) In brief, specific kinase/substrate pairs were mixed in a buffer containing 20 mM Hepes (pH 7.5), 10 mM MgCl2, 1 mM EGTA, 0.02% Brij35, 0.02 mg/ml BSA, 0.1 mM Na3VO4, 2 mM DTT, and 1% DMSO. […] After a 20-min incubation, ATP (cat. no. A7699; Sigma-Aldrich) and [γ-^33P] ATP (cat. no. NEG602H001MC; PerkinElmer) were added at a final total concentration of […].

ERK1/MAPK3 = molecular target: T2, ERK1/MAPK3 (Homo sapiens, UniProt P27361); assay: Radiometric HotSpot kinase assay; format: biochemical; conditions: 100 μM, n = 3; remaining activity vs DMSO; read-out: Enzyme activity (%) ERK1/MAPK3
T2 construct: purchased Reaction Biology
Description: as §1

CK1d = molecular target: T3, CK1d (Homo sapiens, UniProt P48730); assay: Radiometric HotSpot kinase assay; format: biochemical; conditions: n = 3, remaining activity vs DMSO, read-out: Enzyme activity (%) CK1d
T3 construct: purchased Reaction Biology
Description: as §1

CK2a = molecular target: T4, CK2a (Homo sapiens, UniProt P68400); assay: Radiometric HotSpot kinase assay; format: biochemical; conditions: 100 μM, n = 3; remaining activity vs DMSO; read-out: Enzyme activity (%) CK2a
T4 construct: purchased Reaction Biology
Description: as §1

CDK7 = molecular target: T5, CDK7 (Homo sapiens, UniProt P50613); assay: Radiometric HotSpot kinase assay; format: biochemical; conditions: 100 μM, n = 3; remaining activity vs DMSO; read-out: Enzyme activity (%) CDK7
T5 construct: purchased Reaction Biology
Description: as §1

CAMK2d = molecular target: T6, CAMK2d (Homo sapiens, UniProt Q13557); assay: Radiometric HotSpot kinase assay; format: biochemical; conditions: 100 μM, n = 3; remaining activity vs DMSO; read-out: Enzyme activity (%) CAMK2d
T6 construct: purchased Reaction Biology
Description: as §1

CDK2 = molecular target: T7, CDK2 (Homo sapiens, UniProt P24941); assay: Radiometric HotSpot kinase assay; format: biochemical; conditions: n = 3, remaining activity vs DMSO, read-out: Enzyme activity (%) CDK2
T7 construct: purchased Reaction Biology
Description: as §1

TNIK = molecular target: T8, TNIK (Homo sapiens, UniProt Q9UKE5); assay: Radiometric HotSpot kinase assay; format: biochemical
T8 construct: purchased Reaction Biology
T8 sequence (Q9UKE5 whole entry): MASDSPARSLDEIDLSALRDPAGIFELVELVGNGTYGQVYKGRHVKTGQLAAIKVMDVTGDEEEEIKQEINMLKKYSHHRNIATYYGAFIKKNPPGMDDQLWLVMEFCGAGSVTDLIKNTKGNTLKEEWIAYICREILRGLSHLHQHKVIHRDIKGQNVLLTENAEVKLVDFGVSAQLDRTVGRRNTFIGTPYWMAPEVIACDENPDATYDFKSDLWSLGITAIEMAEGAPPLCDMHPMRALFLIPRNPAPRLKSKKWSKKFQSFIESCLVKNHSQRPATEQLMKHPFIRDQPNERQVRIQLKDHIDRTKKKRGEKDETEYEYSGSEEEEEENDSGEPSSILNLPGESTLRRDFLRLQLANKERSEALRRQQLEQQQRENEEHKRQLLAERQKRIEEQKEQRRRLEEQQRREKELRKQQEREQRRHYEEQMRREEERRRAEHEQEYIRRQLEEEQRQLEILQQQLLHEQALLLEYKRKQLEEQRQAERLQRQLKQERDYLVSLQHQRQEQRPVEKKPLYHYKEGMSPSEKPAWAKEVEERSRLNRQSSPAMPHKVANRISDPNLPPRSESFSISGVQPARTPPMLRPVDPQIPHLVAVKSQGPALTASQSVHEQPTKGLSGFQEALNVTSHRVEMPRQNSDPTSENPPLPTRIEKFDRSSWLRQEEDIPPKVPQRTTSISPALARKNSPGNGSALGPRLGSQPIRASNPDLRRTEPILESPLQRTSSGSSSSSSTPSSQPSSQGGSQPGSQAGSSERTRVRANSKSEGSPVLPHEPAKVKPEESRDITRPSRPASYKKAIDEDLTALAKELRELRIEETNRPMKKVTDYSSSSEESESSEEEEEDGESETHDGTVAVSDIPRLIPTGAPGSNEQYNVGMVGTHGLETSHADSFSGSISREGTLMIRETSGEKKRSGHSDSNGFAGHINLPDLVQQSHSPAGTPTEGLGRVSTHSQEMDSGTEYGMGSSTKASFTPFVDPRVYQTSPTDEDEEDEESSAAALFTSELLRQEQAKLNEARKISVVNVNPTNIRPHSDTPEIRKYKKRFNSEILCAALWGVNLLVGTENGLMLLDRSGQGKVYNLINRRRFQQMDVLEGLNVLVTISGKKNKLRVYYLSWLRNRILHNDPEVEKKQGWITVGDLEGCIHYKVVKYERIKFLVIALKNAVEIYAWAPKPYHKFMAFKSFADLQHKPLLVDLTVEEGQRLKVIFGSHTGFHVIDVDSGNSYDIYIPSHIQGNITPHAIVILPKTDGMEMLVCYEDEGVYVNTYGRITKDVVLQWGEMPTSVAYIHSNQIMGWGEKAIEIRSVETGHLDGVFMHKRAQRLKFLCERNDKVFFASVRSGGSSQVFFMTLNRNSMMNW
Description: as §1

MST4/STK26 = molecular target: T9, MST4/STK26 (Homo sapiens, UniProt Q9P289); assay: Radiometric HotSpot kinase assay; format: biochemical; conditions: 100 μM, n = 3; remaining activity vs DMSO; read-out: Enzyme activity (%) MST4/STK26
T9 construct: purchased Reaction Biology
Description: as §1

Synechococcus elongatus = assay: Luminescence rhythm period assay in cyanobacteria; conditions: 3, 8, 16 and 32 μM
Description: The D730nm was maintained between 0.27 and 0.45 by dilution with fresh medium.
Circadian period–altering compounds (dissolved in DMSO, final 0.5% DMSO) were then added in the air medium to reach the different desired concentrations. […] Images were generated from integrated photon counts over 25 min every 30 min using Metamorph software (Molecular Devices). […] Exported images were composed into image stacks and were quantified in a time series using a custom script in NIH ImageJ software, applying the “Multi Measure” plugin.

RPL37 = RPL37 (Homo sapiens, UniProt P61927); assay: TPP in intact U2OS cells; format: binding; conditions: vs vehicle
Per2-dLuc U2OS cells = assay: Circadian luminescence period assay, Per2-dLuc U2OS cells; format: cell-based, human; conditions: 7 μM, mean ± SEM, control 24.2 ± […]
Description: Per2-dLuc U2OS osteosarcoma and Bmal1-dLuc U2OS osteosarcoma reporter cell lines were gifts from Dr Andrew Liu, University of Memphis, USA ([Liu et al, 2008]). […] The cells were cultured at 37°C, 5% CO2 in a standard humidified incubator.

CYCS = CYCS (Homo sapiens, UniProt P99999); assay: TPP in intact U2OS cells; format: binding; conditions: vs vehicle
Sequence of CYCS (P99999 whole entry): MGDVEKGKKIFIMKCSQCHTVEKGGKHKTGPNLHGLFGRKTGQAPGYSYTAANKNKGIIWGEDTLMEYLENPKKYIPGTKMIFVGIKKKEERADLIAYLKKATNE

F-box protein 21 (FBX21) = F-box protein 21 (FBX21) (Homo sapiens, UniProt O94952); assay: TPP in intact U2OS cells; format: binding; conditions: vs vehicle
PSMG4 = PSMG4 (Homo sapiens, UniProt Q5JS54); assay: TPP in intact U2OS cells; format: binding; conditions: vs vehicle
SARS2 = SARS2 (Homo sapiens, UniProt Q9NP81); assay: TPP in intact U2OS cells; format: binding
DYNC1I2 = DYNC1I2 (Homo sapiens, UniProt Q13409); assay: TPP in intact U2OS cells; format: binding; conditions: vs vehicle
Sequence of DYNC1I2 (Q13409 whole entry): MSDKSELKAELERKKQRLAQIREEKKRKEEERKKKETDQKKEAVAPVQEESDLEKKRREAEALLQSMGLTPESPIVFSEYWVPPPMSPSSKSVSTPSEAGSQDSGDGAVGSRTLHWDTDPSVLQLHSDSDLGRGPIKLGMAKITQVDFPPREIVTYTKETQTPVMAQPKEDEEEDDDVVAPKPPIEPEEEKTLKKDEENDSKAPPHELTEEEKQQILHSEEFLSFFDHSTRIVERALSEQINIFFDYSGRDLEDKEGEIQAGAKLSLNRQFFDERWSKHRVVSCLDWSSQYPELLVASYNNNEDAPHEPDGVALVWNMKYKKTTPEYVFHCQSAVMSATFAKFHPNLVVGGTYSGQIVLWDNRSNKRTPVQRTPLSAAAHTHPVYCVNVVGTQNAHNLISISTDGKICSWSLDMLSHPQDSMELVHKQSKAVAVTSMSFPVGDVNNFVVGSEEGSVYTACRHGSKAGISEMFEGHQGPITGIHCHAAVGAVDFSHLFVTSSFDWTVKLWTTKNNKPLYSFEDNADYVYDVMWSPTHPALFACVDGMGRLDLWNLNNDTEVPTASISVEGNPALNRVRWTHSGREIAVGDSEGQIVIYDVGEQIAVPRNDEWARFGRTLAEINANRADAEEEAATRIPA

Sequence of TNS1 (Q9HBL0 whole entry): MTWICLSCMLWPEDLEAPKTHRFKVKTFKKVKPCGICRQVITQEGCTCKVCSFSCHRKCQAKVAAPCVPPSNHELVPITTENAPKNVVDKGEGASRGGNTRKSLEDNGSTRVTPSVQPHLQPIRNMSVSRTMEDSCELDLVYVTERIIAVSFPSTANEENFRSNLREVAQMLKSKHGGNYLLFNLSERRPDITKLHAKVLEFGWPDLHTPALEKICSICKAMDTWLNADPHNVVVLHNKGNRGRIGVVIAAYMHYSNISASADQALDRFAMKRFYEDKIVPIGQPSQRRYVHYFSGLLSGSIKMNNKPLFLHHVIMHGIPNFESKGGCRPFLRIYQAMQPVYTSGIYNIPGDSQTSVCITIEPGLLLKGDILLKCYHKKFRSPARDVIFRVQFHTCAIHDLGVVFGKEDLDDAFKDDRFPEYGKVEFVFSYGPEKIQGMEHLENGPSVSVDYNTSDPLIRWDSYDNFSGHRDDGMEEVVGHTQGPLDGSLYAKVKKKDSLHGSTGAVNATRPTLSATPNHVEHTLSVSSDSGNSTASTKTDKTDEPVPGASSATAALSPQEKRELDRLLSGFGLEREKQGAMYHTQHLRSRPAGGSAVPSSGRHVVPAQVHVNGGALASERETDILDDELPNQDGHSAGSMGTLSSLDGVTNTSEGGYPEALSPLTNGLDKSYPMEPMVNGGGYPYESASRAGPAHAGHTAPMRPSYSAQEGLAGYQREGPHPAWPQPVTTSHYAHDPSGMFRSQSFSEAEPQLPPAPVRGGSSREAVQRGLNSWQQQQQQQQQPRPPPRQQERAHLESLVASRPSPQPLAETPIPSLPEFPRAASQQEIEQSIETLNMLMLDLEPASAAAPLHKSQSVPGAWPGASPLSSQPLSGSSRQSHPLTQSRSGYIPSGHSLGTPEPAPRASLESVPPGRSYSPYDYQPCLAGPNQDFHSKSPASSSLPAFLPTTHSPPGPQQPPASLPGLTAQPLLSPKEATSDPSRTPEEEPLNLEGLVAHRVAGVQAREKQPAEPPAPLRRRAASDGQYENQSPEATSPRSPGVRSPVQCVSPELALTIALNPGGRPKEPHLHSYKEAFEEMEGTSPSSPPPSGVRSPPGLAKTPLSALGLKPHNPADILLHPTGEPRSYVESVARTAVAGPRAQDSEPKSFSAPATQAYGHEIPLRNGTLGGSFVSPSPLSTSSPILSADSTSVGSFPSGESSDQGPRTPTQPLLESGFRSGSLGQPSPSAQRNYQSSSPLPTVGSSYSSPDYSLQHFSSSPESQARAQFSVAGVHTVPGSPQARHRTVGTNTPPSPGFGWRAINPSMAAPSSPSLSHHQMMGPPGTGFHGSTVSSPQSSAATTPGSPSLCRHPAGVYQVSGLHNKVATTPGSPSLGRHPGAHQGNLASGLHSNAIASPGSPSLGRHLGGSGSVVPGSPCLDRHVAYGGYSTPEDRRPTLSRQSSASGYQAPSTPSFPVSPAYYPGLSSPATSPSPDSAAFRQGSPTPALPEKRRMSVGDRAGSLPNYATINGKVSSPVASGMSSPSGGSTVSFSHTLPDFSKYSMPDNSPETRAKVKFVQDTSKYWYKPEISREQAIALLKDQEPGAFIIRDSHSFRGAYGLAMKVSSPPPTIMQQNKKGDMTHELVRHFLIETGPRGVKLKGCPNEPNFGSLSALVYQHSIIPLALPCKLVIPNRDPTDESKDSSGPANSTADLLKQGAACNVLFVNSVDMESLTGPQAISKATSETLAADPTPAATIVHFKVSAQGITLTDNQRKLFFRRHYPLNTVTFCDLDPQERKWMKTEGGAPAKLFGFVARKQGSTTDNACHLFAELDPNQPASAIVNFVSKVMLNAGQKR
Sequence of NFU1 (Q9UMS0 10-254): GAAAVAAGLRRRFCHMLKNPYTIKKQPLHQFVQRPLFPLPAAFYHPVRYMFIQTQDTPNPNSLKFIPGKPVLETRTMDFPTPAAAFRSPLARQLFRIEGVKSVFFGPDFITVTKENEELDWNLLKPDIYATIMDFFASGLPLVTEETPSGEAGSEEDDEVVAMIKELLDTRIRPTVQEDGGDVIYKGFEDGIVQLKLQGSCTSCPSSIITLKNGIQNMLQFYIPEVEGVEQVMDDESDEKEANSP

Structure (SMILES): Oc1c2ccccc2c2c3c(cccc13)N=N2 [SP600125]
- ΔTm at 10 µM (NFU1; Rep1, read-out: + Tm shift NFU1, Rep1): 1.3 °C
- ΔTm at 10 µM (NFU1; Rep2, read-out: + Tm shift NFU1, Rep2): 1.2 °C
- ΔTm at 10 µM (TNS1; Rep1, read-out: + Tm shift TNS1, Rep1): 1.1 °C
- ΔTm at 10 µM (TNS1; Rep2, read-out: + Tm shift TNS1, Rep2): 1.6 °C
- ΔTm at 10 µM ([1]; Rep1, read-out: + Tm shift RABEP1, Rep1): 3.5 °C
- ΔTm at 10 µM ([1]; Rep2, read-out: + Tm shift RABEP1, Rep2): 4.4 °C
- ΔTm at 10 µM ([2]; Rep1, read-out: + Tm shift CSTF2T, Rep1): 1.3 °C
- ΔTm at 10 µM ([2]; Rep2, read-out: + Tm shift CSTF2T, Rep2): 1.8 °C
- remaining activity at 100 µM (ERK2/MAPK1): 70.7%
- remaining activity at 100 µM (ERK1/MAPK3): 76.7%
- remaining activity at 100 µM (CK1d): 0.9%
- remaining activity at 100 µM (CK2a): 5.7%
- remaining activity at 100 µM (CDK7): 13.2%
- remaining activity at 100 µM (CAMK2d): 14.7%
- remaining activity at 100 µM (CDK2): 5.3%
- remaining activity at 100 µM (TNIK; 100 μM, n = 3, remaining activity vs DMSO, read-out: Enzyme activity (%) TNIK): 1.1%
- IC50 (TNIK; 10-dose, threefold serial dilution starting at 100 μM): < 500 nM
- remaining activity at 100 µM (MST4/STK26): 14.4%
- Effect on period length in cyanobacteria (Synechococcus elongatus): do not affect period length
- ΔTm at 10 µM (RPL37; Rep1, read-out: + Tm shift RPL37, Rep1): 2.9 °C
- ΔTm at 10 µM (RPL37; Rep2, read-out: + Tm shift RPL37, Rep2): 2.1 °C
- Circadian period length (Per2-dLuc U2OS cells): 28.6 ± 0.1 h
- ΔTm at 10 µM (CYCS; Rep1, read-out: + Tm shift CYCS, Rep1): 1 °C
- ΔTm at 10 µM (CYCS; Rep2, read-out: + Tm shift CYCS, Rep2): 1 °C
- ΔTm at 10 µM (F-box protein 21 (FBX21); Rep1, read-out: + Tm shift FBX21, Rep1): 3.2 °C
- ΔTm at 10 µM (F-box protein 21 (FBX21); Rep2, read-out: + Tm shift FBX21, Rep2): 2.3 °C
- ΔTm at 10 µM (PSMG4; Rep1, read-out: + Tm shift PSMG4, Rep1): 3.4 °C
- ΔTm at 10 µM (PSMG4; Rep2, read-out: + Tm shift PSMG4, Rep2): 3.5 °C
- ΔTm at 10 µM (SARS2; read-out: + Tm shift SARS2, Rep1): 1.2 °C
- ΔTm at 10 µM (SARS2; read-out: + Tm shift SARS2, Rep2): 1.3 °C
- ΔTm at 10 µM (DYNC1I2; Rep1, read-out: + Tm shift DYNC1I2, Rep1): 2.5 °C
- ΔTm at 10 µM (DYNC1I2; Rep2, read-out: + Tm shift DYNC1I2, Rep2): 0.8 °C
